Laboratory results as given in patent EP0542497A1, “Heterocyclic compounds” (THE WELLCOME FOUNDATION LIMITED, priority 1991, dated 1993).
pEC50, pIC50, pKi: −log10 of the molar value. Where two headings read alike, the source gives them in different places.

What was measured:
Sal. Typhimurium S8587 = experiment: Minimum inhibitory concentration vs microorganisms; conditions: Wellcotest broth plus 7% lysed horse blood, 18 hours, 37°C
Text: (§2) The culture medium used in the test was Wellcotest broth to which lysed horse blood had been added at a final concentration of 7%. The assay was semi-automated employing 96-well Microtiter plates, and growth was monitored visually.

Myco. Smegmatis S3254 = experiment: Minimum inhibitory concentration vs microorganisms; conditions: Wellcotest broth plus 7% lysed horse blood, 18 hours, 37°C
Text: as §2

Sal. Typhosa CN512 = experiment: Minimum inhibitory concentration vs microorganisms; type: cell-based; conditions: Wellcotest broth plus 7% lysed horse blood, 18 hours, 37°C
Staph. Aureus CN491 = experiment: Minimum inhibitory concentration vs microorganisms; conditions: Wellcotest broth plus 7% lysed horse blood, 18 hours, 37°C
Text: as §2

Str. Agalactiae CN1143 = experiment: Minimum inhibitory concentration vs microorganisms; conditions: Wellcotest broth plus 7% lysed horse blood, 18 hours, 37°C
Text: as §2

[1] = biological target: T1, human dihydrofolate reductase (Homo sapiens, UniProt P00374); experiment: DHFR I50, human enzyme; type: biochemical
T1 sequence (P00374 1-187): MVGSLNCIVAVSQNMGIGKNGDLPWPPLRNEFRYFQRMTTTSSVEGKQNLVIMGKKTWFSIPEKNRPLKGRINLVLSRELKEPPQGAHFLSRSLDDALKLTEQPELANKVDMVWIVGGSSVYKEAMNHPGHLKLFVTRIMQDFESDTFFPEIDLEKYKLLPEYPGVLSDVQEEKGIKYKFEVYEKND

Past. Multocida ATCC6587 = experiment: Minimum inhibitory concentration vs microorganisms; conditions: Wellcotest broth plus 7% lysed horse blood, 18 hours, 37°C
Text: as §2

[2] = biological target: T1, human dihydrofolate reductase; experiment: Enzyme binding affinity (Ki) for human dihydrofolate reductase, Henderson equation; type: biochemical; conditions: 50mM Sorenson's phosphate buffer, pH 7, 45µM dihydrofolate, 65µM NADPH
DHFR = biological target: T2, DHFR (Candida albicans, UniProt P22906); experiment: biochemical
T2 sequence (P22906 1-192): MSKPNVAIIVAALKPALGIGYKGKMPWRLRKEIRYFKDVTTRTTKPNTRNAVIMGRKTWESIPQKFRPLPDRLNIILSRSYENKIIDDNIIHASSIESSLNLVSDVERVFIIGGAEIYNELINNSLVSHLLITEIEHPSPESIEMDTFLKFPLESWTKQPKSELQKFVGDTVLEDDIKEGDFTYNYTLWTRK

[3] = Brain distribution in mice (brain and plasma concentrations by HPLC); type: in vivo; conditions: female CD1 mice, 30 or 40 minutes after dose; Compound 1 17mg/kg i.v., Compound 2 10mg/kg i.v., piritrexim 200mg/kg i.p., trimetrexate 100mg/kg i.p.; average of several experiments
Experimental: Female CD1 mice were dosed with Compound 1 (17mg/kg, i.v.), Compound 2 (10mg/kg, i.v.), piritrexim (200mg/kg,i.p.) or trimetrexate (100mg/kg, i.p.). Brain and plasma samples were collected 30 or 40 minutes later. The drugs were extracted from the samples, and their concentrations were determined using HPLC. The numbers represent the average of several experiments.

[4] = test system: Bord. Bronchisep-tica CN385; experiment: Minimum inhibitory concentration vs microorganisms; conditions: Bord. Bronchiseptica CN385; Wellcotest broth plus 7% lysed horse blood, 18 hours, 37°C
Text: as §2

Candida Albicans CN1863 = experiment: Minimum inhibitory concentration vs microorganisms; conditions: Wellcotest broth plus 7% lysed horse blood, 18 hours, 37°C
Text: as §2

Str. Faecalis CN478 = experiment: Minimum inhibitory concentration vs microorganisms; conditions: Wellcotest broth plus 7% lysed horse blood, 18 hours, 37°C
Text: as §2

Str. Pyogenes CN10 = experiment: Minimum inhibitory concentration vs microorganisms; conditions: Wellcotest broth plus 7% lysed horse blood, 18 hours, 37°C
Text: as §2

GC3C1 colon carcinoma = experiment: Cytotoxicity in cell culture (inhibition of cell growth); type: cell-based; conditions: GC3/C1, human line, continuous exposure 72 hours
Experimental: (§1) The cytotoxic effects of various compounds were measured by the inhibition of mammalian cell growth in culture. Cell lines were grown in RPMI-1640 media prepared without folic acid but supplemented with 10nM calcium leucovorin, 25mM HEPES and 10% dialysed fetal bovine serum. In the case of human medulloblastoma cells (Daoy), the media (containing undialysed 10% fetal bovine serum) was pretreated with the enzyme thymidine phosphorylase (20 units/ml for 30 mins. at 37°C) to remove endogenous thymidine. Cells were seeded into 96 well microtiter plates (at densities determined to give log phase growth of control cells at the end of the assay) in 150µl of medium and grown at 37°C in a humidified incubator at 6% CO₂ for 24 hours. Compounds were prepared in media at four times the highest concentration to be tested; two-fold serial dilutions were made, and compounds were added to cells. […] The EC₅₀, defined as the concentration of compound required to reduce growth to 50% of the control, was determined from a plot of per cent inhibition versus log concentration. Cells were continuously exposed to inhibitor for 72 hours.

S180 sarcoma = experiment: as above; type: cell-based; conditions: S-180, mouse line, continuous exposure 72 hours
Experimental: as §1

[5] = test system: KB3-1 epidermoid carcinoma; experiment: as above; type: cell-based; conditions: KB 3-1, human line, continuous exposure 72 hours
Experimental: as §1

[6] = test system: MCF7 breast adenocarcinoma; experiment: as above; type: cell-based; conditions: human line, continuous exposure 72 hours
Experimental: as §1

Daoy medulloblastoma = experiment: as above; type: cell-based; conditions: human line, continuous exposure 72 hours, medium pretreated with thymidine phosphorylase
Experimental: as §1

CCRF-CEM T cells = experiment: as above; type: cell-based; conditions: human line, continuous exposure 72 hours
Experimental: as §1

[7] = test system: L cells (derived from connective tissue); experiment: as above; type: cell-based; conditions: mouse line, continuous exposure 72 hours
Experimental: as §1

[8] = test system: Ehrlich ascites carcinoma; experiment: as above; type: cell-based; conditions: mouse line, continuous exposure 72 hours
Experimental: as §1

P388 lymphoid neoplasm = experiment: as above; type: cell-based; conditions: mouse line, continuous exposure 72 hours
Experimental: as §1

[9] = test system: HCT8 colon adenocarcinoma; experiment: as above; type: cell-based; conditions: HCT-8, human line, continuous exposure 72 hours
Experimental: as §1

D98 bone marrow cells = experiment: as above; type: cell-based; conditions: human line, continuous exposure 72 hours
Experimental: as §1

Shig. Flexneri CN6007 = experiment: Minimum inhibitory concentration vs microorganisms; conditions: Wellcotest broth plus 7% lysed horse blood, 18 hours, 37°C
Text: as §2

[10] = test system: Vibrio Cholerae ATCC14035; experiment: Minimum inhibitory concentration vs microorganisms; conditions: Wellcotest broth plus 7% lysed horse blood, 18 hours, 37°C
Text: as §2

[11] = test system: Mycobacterium avium complex (MAC); experiment: In vitro activity vs Mycobacterium avium complex, radiometric respirometry (BACTEC); type: cell-based; conditions: seven (7) clinical isolates of Myco. avium

Row | Compound | M I C (Sal. Typhimurium S8587) | M I C (Myco. Smegmatis S3254) | M I C (Sal. Typhosa CN512) | M I C (Staph. Aureus CN491) | M I C (Str. Agalactiae CN1143) | pIC50 [1] | M I C (Past. Multocida ATCC6587) | pKi [2] | Tissue concentration brain [3] | Tissue concentration plasma [3] | M I C [4] | M I C (Candida Albicans CN1863) | M I C (Str. Faecalis CN478) | M I C (Str. Pyogenes CN10) | pEC50 (GC3C1 colon carcinoma) | pEC50 [5] | pEC50 [6] | pEC50 (Daoy medulloblastoma) | pEC50 (CCRF-CEM T cells) | M I C (Shig. Flexneri CN6007) | other results
1 | CCC(CC)n1ccc2c3c(N)nc(N)nc3ccc21 [Compound 1, 1,3-Diamino-7-(1-ethylpropyl)-7H-pyrrolo(3,2-f)quinazoline] | 0.1 µg/mL | 0.1 µg/mL | 0.1 µg/mL | 0.1 µg/mL | 0.1 µg/mL | > 9.00 | 0.1 µg/mL | 10.72 | 5.0 µg/g | 0.70 µg/mL | 0.1 µg/mL | 0.3 µg/mL | 0.1 µg/mL | 0.1 µg/mL | 8.46 | 7.15 | 7.42 | 8.08 | 9.15 | 0.1 µg/mL | pIC50 (DHFR; C.albicans enzyme, read-out: DHFR I50 C.albicans): 8.35; pEC50 (S180 sarcoma): 8.32; pEC50 [7]: 8.66; pEC50 [8]: 8.72; pEC50 (P388 lymphoid neoplasm): 8.57; pEC50 [9]: 8.92; pEC50 (D98 bone marrow cells): 7.35
2 | CCC(CC)n1c(C)cc2c3c(N)nc(N)nc3ccc21 [Compound 2, 1,3-Diamino-7-(1-ethylpropyl)-8-methyl-7H-pyrrolo(3,2-f)quinazoline] | 0.003 µg/mL | 0.001 µg/mL | 0.1 µg/mL | 0.01 µg/mL | .0001 µg/mL | > 9.00 | .0001 µg/mL | 11.85 | 2.4 µg/g | 0.36 µg/mL | 0.003 µg/mL | 0.03 µg/mL | .0001 µg/mL | .0001 µg/mL | 9.10 | 7.89 | 9.05 | 9.40 | > 9.00 | 0.003 µg/mL | pIC50 (DHFR): > 9.00; M I C [10]: .0001 µg/mL; pEC50 [7]: 9.15; pEC50 (P388 lymphoid neoplasm): 9.52; pEC50 [9]: 9.52; pEC50 (D98 bone marrow cells): 7.92; inhibition at 1 µg/mL ([11]; 1µg/ml, read-out: range of growth inhibition): 69 to 97%; inhibition at 5 µg/mL ([11]; 5µg/ml, read-out: range of growth inhibition): 97 to 99%; M I C ([11]; roughly translated from growth inhibition, read-out: average MIC): ~1.6 µg/mL
3 | COc1cc(Cc2cnc(N)nc2N)cc(OC)c1OC [Trimethoprim, 2,4-diamino-5-(3,4,5-trimethoxybenzyl)pyrimidine, reference compound] | 0.1 µg/mL | 0.3 µg/mL | 0.1 µg/mL | 0.1 µg/mL | 0.1 µg/mL | – | 0.1 µg/mL | – | – | – | – | >100 µg/mL | 0.1 µg/mL | 0.1 µg/mL | – | – | – | – | – | 0.1 µg/mL | M I C [10]: 0.3 µg/mL
